Experimental data published in ChEMBL document CHEMBL4602729, “O-Alkyl Hydroxamates Display Potent and Selective Antileishmanial Activity” (J Med Chem, 2020).
Active and inactive are the calls of the source. The calls are words filed in the database; no cut-off is given here.

Key:
[1] = Toxicity in BALB/c mouse infected with Leishmania infantum MON-1 promastigotes assessed as swelling of liver at 10 to 25 mg/kg, ip administered daily for 14 days starting from 28 days post infection using gold nanoparticle incorporated compound; format: organism-based; details: in vivo
[2] = Toxicity in BALB/c mouse infected with Leishmania infantum MON-1 promastigotes assessed as enzymatic alteration in plasma at 10 to 25 mg/kg, ip administered daily for 14 days starting from 28 days post infection using PLGA nanoparticle incorporated compound; format: organism-based; details: in vivo
Leishmania infantum [3] = assay: (§1) Antileishmanial activity against Leishmania infantum MON-1 promastigotes infected in BALB/c mouse assessed as reduction in spleen parasite load at 10 mg/kg, ip administered daily for 14 days starting from 28 days post infection using gold nanoparticle incorporated compound measured post last dose by Taqman qRT-PCR analysis relative to control; format: functional; parameters: scale not given: the % may be the effect or the level left
Leishmania infantum [4] = assay: as §1, with “liver” for “spleen”, “dose in presence of meglumine antimoniate” for “dose”; format: functional; parameters: scale not given: the % may be the effect or the level left
[5] = Toxicity in BALB/c mouse infected with Leishmania infantum MON-1 promastigotes at 5 to 10 mg/kg, ip administered daily for 14 days starting from 28 days post infection using gold nanoparticle incorporated compound in presence of meglumine antimoniate; format: organism-based; details: in vivo
[6] = Cytotoxicity against mouse L929 cells assessed as reduction in cell viability measured after 72 hrs by tryphan blue assay; format: cell-based; details: L929 cells
Leishmania infantum [7] = assay: Antileishmanial activity against Leishmania infantum MON-1 promastigotes assessed as reduction in parasite viability at 100 uM measured after 48 hrs by MTT assay; format: functional, organism-based
Leishmania infantum [8] = assay: as §1, with “liver” for “spleen”, “5” for “10”, “dose in presence of meglumine antimoniate” for “dose”; format: functional; parameters: scale not given: the % may be the effect or the level left
[9] = Drug metabolism in human liver microsomes assessed as compound 13 formation at 1 uM measured after 30 mins by LC-MS/MS analysis; format: ADME, Microsome; details: 0.5 h
[10] = Solubility of the compound in plasma (unknown origin); format: ADME, cell-free
[11] = Toxicity in BALB/c mouse infected with Leishmania infantum MON-1 promastigotes assessed as weight loss at 10 to 25 mg/kg, ip administered daily for 14 days starting from 28 days post infection using gold nanoparticle incorporated compound; format: organism-based; details: in vivo
[12] = Toxicity in BALB/c mouse infected with Leishmania infantum MON-1 promastigotes assessed as swelling of liver at 10 to 25 mg/kg, ip administered daily for 14 days starting from 28 days post infection using PLGA nanoparticle incorporated compound; format: organism-based; details: in vivo
[13] = Toxicity in BALB/c mouse infected with Leishmania infantum MON-1 promastigotes assessed as biochemical alteration in serum at 10 to 25 mg/kg, ip administered daily for 14 days starting from 28 days post infection using gold nanoparticle incorporated compound; format: organism-based; details: in vivo
[14] = Toxicity in BALB/c mouse infected with Leishmania infantum MON-1 promastigotes assessed as enzymatic alteration in serum at 10 to 25 mg/kg, ip administered daily for 14 days starting from 28 days post infection using gold nanoparticle incorporated compound; format: organism-based; details: in vivo
Leishmania infantum [15] = assay: as §1, with “liver” for “spleen”, “25” for “10”; format: functional; parameters: scale not given: the % may be the effect or the level left
Leishmania infantum [16] = assay: Antileishmanial activity against Leishmania infantum MON-1 intracellular amastigotes infected in Swiss mouse BMDM assessed as reduction in parasite load at 14.3 uM measured after 48 hrs using gold nanoparticle incorporated compound by Giemsa staining based optical microscopic analysis relative to control; format: functional; parameters: scale not given: the % may be the effect or the level left
[17] = Toxicity in BALB/c mouse infected with Leishmania infantum MON-1 promastigotes assessed as histological changes at 10 to 25 mg/kg, ip administered daily for 14 days starting from 28 days post infection using PLGA nanoparticle incorporated compound; format: organism-based; details: in vivo
Leishmania infantum [18] = assay: as §1, with “25” for “10”; format: functional; parameters: scale not given: the % may be the effect or the level left
[19] = Toxicity in BALB/c mouse infected with Leishmania infantum MON-1 promastigotes assessed as enzymatic alteration in plasma at 10 to 25 mg/kg, ip administered daily for 14 days starting from 28 days post infection using gold nanoparticle incorporated compound; format: organism-based; details: in vivo
[20] = Toxicity in Swiss mouse at 500 mg/kg administered as single dose measured after 28 days; format: organism-based; details: in vivo, 672 h
[21] = Toxicity in BALB/c mouse infected with Leishmania infantum MON-1 promastigotes assessed as swelling of spleen at 10 to 25 mg/kg, ip administered daily for 14 days starting from 28 days post infection using PLGA nanoparticle incorporated compound; format: organism-based; details: in vivo

Compound: O=C(CCCCCCC(=O)Nc1ccccc1)NOC(c1ccccc1)(c1ccccc1)c1ccccc1
- Activity [1]: Non-Toxic
- Activity [2]: Non-Toxic
- Activity (Leishmania infantum [3]): 86%
- Activity (Leishmania infantum [4]): 100%
- Activity [5]: Non-Toxic
- CC50 at 72 h [6]: > 100 µM
- Activity (Leishmania infantum [7]): inactive
- Activity (Leishmania infantum [8]): 98%
- Drug metabolism [9]: Metabolite_Detected
- solubility [10]: Insoluble
- Activity [11]: Non-Toxic
- Activity [12]: Non-Toxic
- Activity [13]: Non-Toxic
- Activity [14]: Non-Toxic
- Activity (Leishmania infantum [15]): 68%
- Activity (Leishmania infantum [16]): 71%
- Activity [17]: Non-Toxic
- Activity (Leishmania infantum [18]): 96%
- Activity [19]: Non-Toxic
- Activity [20]: Non-Toxic
- Activity [21]: Non-Toxic
